Measurements as given in patent US20160045463A1, “USE OF METALLOPROTEASE INHIBITORS IN THE TREATMENT OF POLYCYSTIC LIVER DISEASES” (UNIVERSIDAD DE SALAMANCA, priority 2012, published 2016).

What was measured:
[1] = test system: normal human cholangiocytes; experiment: Metalloproteolytic activity of culture supernatants, ES001 fluorogenic peptide cleavage; assay type: cell-based; conditions: normal cholangiocytes; 13-cis-retinoic acid 10 μM/ml or Marimastat 200 μM/ml; p<0.01; FIG. 21
Description: (§1) Metalloproteolytic or metalloprotease activity was measured in supernatants of cultures of normal human cholangiocytes and polycystic human cholangiocytes by an assay based on the cleavage of the ES001 fluorogenic synthetic peptide (R&D Systems Minneapolis, Minn., USA) that emits fluorescence proportional to metalloproteolytic activity. The substrate Mca-Pro-Leu-Gly-Leu-Dpa-Ala-Arg-NH2 [Mca: (7-Methoxycoumarin-4-yl)acetyl, Dpa: N-3-(2,4-Dinitrophenyl)-L-2,3-diaminopropionyl] (Knight C G, et al. FEBS Letters 1992; 296:263) is lysed between glycine and leucine by the action of the MMPs, especially MMP-1 (collagenase 1), MMP-2 (gelatinase A), MMP-7 (matrilysin), MMP-8 (collagenase 2), MMP-9 (gelatinase B), MMP-12 (macrophage elastase), MMP-13 (collagenase 3), MMP-14 (MT1-MMP), MMP-15 (MT2-MMP) and MMP-16 (MT3-MMP).
(§2) The basal metalloproteolytic activity of normal human cholangiocyte and polycystic human cholangiocytes cultures was determined by trypsinising the contents of 250 ml flasks and counting the number of cells in an inverted optical microscope using a Neubauer camera and a ½ dilution of the cell solution with trypan blue (Sigma). Next, 300,000 cells were seeded in each well of a 6-well plate and incubated with enriched DMEM/F-12 medium for 24 hours. After this time, the cells were washed with PBS and the culture medium changed for 2 ml of quiescent medium (DMEM/F-12, 1% FBS and 1% P/S) and incubated for 6 hours at 37° C./5% CO2. The supernatant was collected from each well and centrifuged at 4° C. for 10 minutes at 1,500 rpm to remove the dead cells present in the supernatant. The supernatant was concentrated 50 times using a 15 kDa (Millipore) Amicon Ultra concentrator. Next the concentrated supernatant was incubated for 2 hours at 37° C. with the ES001 fluorogenic peptide at a final concentration of 10 μM. Also, GM6001 (a global MMP inhibitor) and aprotinin (a global inhibitor of serine proteases) (both from Sigma-Aldrich) were used as controls of the specificity of the analysis of MMP activity in the assay. Recombinant MMP-10 (kindly provided by Dr. José Antonio Rodriguez Garcia, Laboratorio de Ateroesclerosis e Inflamación del CIMA, Universidad de Navarra) was used as a positive control and DMEM/F-12 medium without serum was used as the negative control. The fluorescence determination was kinetically measured in a Spectra MAX GeminiXS (Molecular Devices Sunnyvale, Calif., USA) spectrophotometer at excitation-emission wavelengths of 320-405 nm. The fluorescence intensity emitted by the culture medium was extracted from the metalloproteolytic activity values. The metalloproteolytic activity was calculated from the tangent to the curve of the fluorescence values using at least six different points over time for each type of cell and condition.
(§3) To analyse the effect of various stimuli on the metalloproteolytic activity of normal and polycystic human cholangiocytes cultures, a protocol similar to that described before in Example 2 was followed, but in this case the incubation of the cells was with quiescent medium (i.e. DMEM/F12, […]) in the presence of the corresponding stimulus (Table 3). Next, the same procedure as described for the analysis of basal metalloproteolytic activity was followed as described in Example 2.
(§4) Taking into account that: i) basal activity of polycystic human cholangiocytes in culture is greater than that of normal human cholangiocytes and ii) that IL-6 and IL-8 increased the metalloproteolytic activity of normal and polycystic human cholangiocytes, the role of these two cytokines on metalloproteolytic hyperactivity of polycystic human cholangiocytes using antibodies against the receptors of IL-6 (IL6R) and/or IL-8 (CXCR1) was investigated. […]

[2] = test system: polycystic human cholangiocytes; experiment: as above; assay type: cell-based; conditions: polycystic cholangiocytes; 13-cis-retinoic acid 10 μM/ml or Marimastat 200 μM/ml; p<0.01; FIG. 21
Description: as §1, §2, §3, §4

With `CNC(=O)[C@@H](NC(=O)[C@H](CC(C)C)[C@H](O)C(=O)NO)C(C)(C)C` [Marimastat, N-[2,2-dimethyl-1-(methylcarbamoyl)propyl]-2-[hydroxy-(hydroxycarbamoyl)methyl]-4-methyl-pentanamide] the “basal metalloproteolytic activity in presence of inhibitor” value [1] was “inhibited” and the “basal metalloproteolytic activity in presence of inhibitor” value [2] was “inhibited”.
